According to US12414974B2, “Materials and methods for treating cancer” (priority 2017, dated 2025):

Test system: GBM39 cells
Assay: MV growth kinetics (virus production, titration on Vero cells)
Type: cell-based, human
Procedure: MV strains and virus propagation. Generation and characterization of MV strains expressing human iodide symporter (MV-NIS), human carcinoembryonic antigen (MV-CEA) and green fluorescent protein (MV-GFP) has been described elsewhere (see, e.g., Dingli et al. 2004 Blood 103:1641-1646; Peng et al. 2002 Cancer Res 62:4656-4662; Duprex et al. 1999 J Virol 73:9568-9575). Viruses were propagated on Vero cells and viral stocks were prepared by repeated freezing-thawing and stored frozen at −80° C. MV titers were determined in tissue culture infectious doses 50% (TCID50) per ml by titration on Vero cells described elsewhere (see, e.g., Iankov et al. 2009 Mol Ther 17:1395-1403). High grade purified viral stocks from supernatant released viruses were prepared as described elsewhere (see, e.g., Langfield et al. 2011 Methods Mol Biol 737:345-366).
MV growth kinetics. Growth kinetics of MV in primary GBM cells was determined by titration on Vero cells for the cell-associated virus at different time points post infection with MV-NIS. Briefly, the 4×10^5 cells were inoculated at a MOI of 0.1 with MV-NIS and incubated in 6-well cell culture plates (Falcon). […] Wells positive for syncytia were counted at 72 hours and virus titers were calculated as described above. […]

SMILES: N#CC[C@H](C1CCCC1)n1cc(-c2ncnc3[nH]ccc23)cn1 [Jakafi, Ruxolitinib]
- increase of MV-NIS virus production vs control (GBM39, 3 μM for 48 hours prior to infection, MV-NIS MOI 0.1, 96 hours): ~1000 fold
- time of addition still sufficient to restore MV production (GBM39, 3 μM, MV MOI 0.1, virus production 48 hours post-infection): up to 12 hours post-infection
